# How the values were obtained:
# [1] = test system: L1210; assay: Percent increase in life span relative to untreated controls in murine L1210 leukemia infected B6D2F1J male mice at 60 mg/kg optimal dose; assay type: functional; conditions: Mus musculus
# [2] = test system: CCRF-CEM; assay: In vitro growth inhibition against CCRF-CEM (human lymphoblastic leukemic) cell line.; assay type: functional; conditions: read-out: ID50 (the source's name)
# [3] = test system: L1210; assay: Percent increase in life span relative to untreated controls in murine L1210 leukemia infected B6D2F1J male mice at 4 mg/kg optimal dose; assay type: functional; conditions: Mus musculus
# [4] = test system: L1210; assay: Percent increase in life span relative to untreated controls in murine L1210 leukemia infected B6D2F1J male mice at […] optimal dose; assay type: functional, Mus musculus
# [5] = test system: L1210; assay: Percent increase in life span relative to untreated controls in murine L1210 leukemia infected B6D2F1J male mice at 101.25 mg/kg optimal dose; assay type: functional; conditions: Mus musculus
# [6] = test system: L1210; assay: Percent increase in life span relative to untreated controls in murine L1210 leukemia infected B6D2F1J male mice at 10.13 mg/kg optimal dose; assay type: functional; conditions: Mus musculus
# [7] = test system: L1210; assay: Percent increase in life span relative to untreated controls in murine L1210 leukemia infected B6D2F1J male mice at 30 mg/kg optimal dose; assay type: functional; conditions: Mus musculus
# [8] = test system: L1210; assay: Percent increase in life span relative to untreated controls in murine L1210 leukemia infected B6D2F1J male mice at 50 mg/kg optimal dose; assay type: functional; conditions: Mus musculus
Compound,IC50 [2] [nM],also measured
COc1cccc2c1C(=O)c1c(O)c3c(c(O)c1C2=O)C[C@@](O)(C(=O)C[Se]c1ccccc1)C[C@@H]3OC1CC(NC(=O)C(F)(F)F)C(O)C(C)O1 (stereo not given in full),2800,ILS at 60 mg/kg [1]: 66%
COc1cccc2c1C(=O)c1c(O)c3c(c(O)c1C2=O)C[C@@](O)(C(=O)CO)C[C@@H]3O[C@H]1C[C@H](N)[C@H](O)[C@H](C)O1 [DOXORUBICIN],66,ILS at 4 mg/kg [3]: 50%
COc1cccc2c1C(=O)c1c(O)c3c(c(O)c1C2=O)C[C@@](O)(C(=O)CSCCSCC(=O)[C@]1(O)Cc2c(O)c4c(c(O)c2[C@H](OC2CC(N)C(O)C(C)O2)C1)C(=O)c1c(OC)cccc1C4=O)C[C@@H]3OC1CC(N)C(O)C(C)O1 (stereo not given in full),1060,
CCOC(=O)CSCC(=O)[C@]1(O)Cc2c(O)c3c(c(O)c2[C@@H](OC2CC(NC(=O)C(F)(F)F)C(O)C(C)O2)C1)C(=O)c1c(OC)cccc1C3=O (stereo not given in full),5330,ILS [4]: 0%
COc1cccc2c1C(=O)c1c(O)c3c(c(O)c1C2=O)C[C@@](O)(C(=O)C[Se]c1ccccc1)C[C@@H]3OC1CC(N)C(O)C(C)O1 (stereo not given in full),400,
COc1cccc2c1C(=O)c1c(O)c3c(c(O)c1C2=O)C[C@@](O)(C(=O)CSc1ccccc1)C[C@@H]3OC1CC(NC(=O)C(F)(F)F)C(O)C(C)O1 (stereo not given in full),> 13700,ILS at 101.25 mg/kg [5]: 10%
CCCCCSCC(=O)[C@]1(O)Cc2c(O)c3c(c(O)c2[C@@H](OC2CC(N)C(O)C(C)O2)C1)C(=O)c1c(OC)cccc1C3=O (stereo not given in full),950,ILS at 10.13 mg/kg [6]: 33%
CCCCCCCCCCCCSCC(=O)[C@]1(O)Cc2c(O)c3c(c(O)c2[C@@H](OC2CC(N)C(O)C(C)O2)C1)C(=O)c1c(OC)cccc1C3=O (stereo not given in full),1440,ILS at 10.13 mg/kg [6]: 11%
CCCCCSCC(=O)[C@]1(O)Cc2c(O)c3c(c(O)c2[C@@H](OC2CC(NC(=O)C(F)(F)F)C(O)C(C)O2)C1)C(=O)c1c(OC)cccc1C3=O (stereo not given in full),> 13800,ILS [4]: 10%
COc1cccc2c1C(=O)c1c(O)c3c(c(O)c1C2=O)C[C@@](O)(C(=O)CSc1ccccc1)C[C@@H]3OC1CC(N)C(O)C(C)O1 (stereo not given in full),870,ILS at 10.13 mg/kg [6]: 22%
CCCCCCCCCCCCSCC(=O)[C@]1(O)Cc2c(O)c3c(c(O)c2[C@@H](OC2CC(NC(=O)C(F)(F)F)C(O)C(C)O2)C1)C(=O)c1c(OC)cccc1C3=O (stereo not given in full),> 15000,ILS [4]: 0%
COc1cccc2c1C(=O)c1c(O)c3c(c(O)c1C2=O)C[C@@](O)(C(=O)CSCCCSCC(=O)[C@]1(O)Cc2c(O)c4c(c(O)c2[C@@H](OC2CC(N)C(O)C(C)O2)C1)C(=O)c1c(OC)cccc1C4=O)C[C@@H]3OC1CC(N)C(O)C(C)O1 (stereo not given in full),830,
CCCCSCC(=O)[C@]1(O)Cc2c(O)c3c(c(O)c2[C@@H](OC2CC(N)C(O)C(C)O2)C1)C(=O)c1c(OC)cccc1C3=O (stereo not given in full),250,ILS at 10.13 mg/kg [6]: 33%
CCOC(=O)CSCC(=O)[C@]1(O)Cc2c(O)c3c(c(O)c2[C@@H](OC2CC(N)C(O)C(C)O2)C1)C(=O)c1c(OC)cccc1C3=O (stereo not given in full),230,ILS at 30 mg/kg [7]: 50%
COc1cccc2c1C(=O)c1c(O)c3c(c(O)c1C2=O)C[C@@](O)(C(=O)CSCCCCCCCCCSCC(=O)[C@]1(O)Cc2c(O)c4c(c(O)c2[C@H](OC2CC(N)C(O)C(C)O2)C1)C(=O)c1c(OC)cccc1C4=O)C[C@@H]3OC1CC(N)C(O)C(C)O1 (stereo not given in full),1230,
CCCCSCC(=O)[C@]1(O)Cc2c(O)c3c(c(O)c2[C@@H](OC2CC(NC(=O)C(F)(F)F)C(O)C(C)O2)C1)C(=O)c1c(OC)cccc1C3=O (stereo not given in full),5620,ILS [4]: 0%
CCCCC(=O)OCC(=O)[C@]1(O)Cc2c(O)c3c(c(O)c2[C@@H](OC2CC(NC(=O)C(F)(F)F)C(O)C(C)O2)C1)C(=O)c1c(OC)cccc1C3=O (stereo not given in full),240,ILS at 50 mg/kg [8]: > 455%
